In assay [1] the test system is Bacillus subtilis. The assay can be described thus: Antimicrobial activity against Bacillus subtilis at 5 ug/disk by disk assay. Format: functional, organism-based.
For assay [2], the system named is Staphylococcus aureus. The assay can be described thus: Antimicrobial activity against Staphylococcus aureus at 1 ug/disk by disk assay. Format: functional, organism-based.
In a further assay the test system is A549. The assay can be described thus: Cytotoxicity against human A549 cells. Format: functional. To be noted: read-out: ED50 (the source's name).
The test system of assay [3] is Staphylococcus aureus. Put plainly: Antimicrobial activity against Staphylococcus aureus at 10 ug/disk by disk assay. Format: functional, organism-based.
Assay [4] concerns Bacillus subtilis. Put plainly: Antimicrobial activity against Bacillus subtilis at 1 ug/disk by disk assay. Format: functional, organism-based.
In a further assay the test system is HT-29. The assay can be described thus: Cytotoxicity against human HT-29 cells. The class given is functional. The following applies: read-out: ED50 (the source's name).
The next assay concerns MCF7. The assay can be described thus: Cytotoxicity against human MCF7 cells. The class given is functional. To be noted: read-out: ED50 (the source's name).

Structures are written as SMILES. Converted amounts (≈) assume the structure as drawn. The source made the active and inactive calls. The rule behind the calls is not given here.

For the molecule `Cc1cc(O)c(Cl)c(Oc2c(Cl)c(C)cc(O)c2Cl)c1`, the result in the assay with Bacillus subtilis [1] was Active.

Regarding `Cc1cc(O)c(Cl)c(Oc2c(Cl)c(C)cc(O)c2Cl)c1Cl`, the outcome with Staphylococcus aureus [2] was Active.

With `COC1=CC(=O)c2c(cc(OC)c(C(C)C3=C(O)C(=O)c4cc(O)c(C(C)=O)c(O)c4C3=O)c2O)C1=O` (configuration not stated) [KIRSCHSTEININ], the EC50 in the assay with A549 is 3.1 µg/mL (≈ 6.1 µM); with HT-29, 2.7 µg/mL (≈ 5.31 µM); in the assay on MCF7, 5.2 µg/mL (≈ 10.2 µM). Moreover, the outcome in the assay on Staphylococcus aureus [3] and in the assay with Bacillus subtilis [4] was Active.

Source of the values: ChEMBL document CHEMBL1149732, “New bioactive metabolites from a freshwater isolate of the fungus Kirschsteiniothelia sp” (1992).
